“And” between values parts separate entries of the source, which are not always exact repeats. Equal entries are not always repeated.
Tested on: human primary hepatocytes
Test: Metabolic disposition of [^14C]-Compound 1 and [^14C]-2′-C-methyl guanosine in human primary hepatocytes (incubation medium, cellular extracts, nucleotide levels)
Type: in vitro ADME
Settings: for AUC (area under the concentration-time curve) of Compound 7 levels: 0-24 h
Method in brief: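 Radio-HPLC and liquid scintillation counting quantified metabolites in incubation medium and in 70% methanol cell extracts. Samples came from cultured rat, monkey or human primary hepatocytes exposed at 37° C to 1 or 10 μM [^14C]-compound or [^14C]-2′-C-methyl guanosine, sampled at 1–24 hours. Phosphates were confirmed by phosphatase digestion to the nucleoside.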

[1] = human hepatocytes (Hu775), 1 μM [^14C]-Compound 1, 1 h
[2] = human hepatocytes (Hu775), 1 μM [^14C]-Compound 1, 8 h
[3] = human hepatocytes (Hu775), 1 μM [^14C]-Compound 1, 24 h
[4] = human hepatocytes Hu775, 1 μM [^14C]-2′-C-methyl guanosine, 1 h
[5] = human hepatocytes Hu775, 1 μM [^14C]-2′-C-methyl guanosine, 8 h
[6] = human hepatocytes Hu775, 1 μM [^14C]-2′-C-methyl guanosine, 24 h

metabolites observed in cellular extracts (% of total radioactivity) (human hepatocytes (Hu759, Hu775), 10 μM [^14C]-2′-C-methyl guanosine, 1 h): 2.40% and 3.93%
metabolites observed in cellular extracts (% of total radioactivity) (human hepatocytes (Hu759, Hu775), 10 μM [^14C]-2′-C-methyl guanosine, 4 h): 11.1% and 19.4%
metabolites observed in cellular extracts (% of total radioactivity) (human hepatocytes (Hu759, Hu775), 10 μM [^14C]-2′-C-methyl guanosine, 8 h): 19.6% and 34.1%
metabolites observed in cellular extracts (% of total radioactivity) (human hepatocytes (Hu759, Hu775), 10 μM [^14C]-2′-C-methyl guanosine, 24 h): 36.1% and 45.8%
metabolites observed in cellular extracts (% of total radioactivity) (human hepatocytes (Hu759, Hu775), 10 μM [^14C]-Compound 1, 1 h): 34.2% and 46.4%
metabolites observed in cellular extracts (% of total radioactivity) (human hepatocytes (Hu759, Hu775), 10 μM [^14C]-Compound 1, 4 h): 63.1% and 69.7%
metabolites observed in cellular extracts (% of total radioactivity) (human hepatocytes (Hu759, Hu775), 10 μM [^14C]-Compound 1, 8 h): 70.5% and 74.1%
metabolites observed in cellular extracts (% of total radioactivity) (human hepatocytes (Hu759, Hu775), 10 μM [^14C]-Compound 1, 24 h): 69.5% and 59.6%
2′-C-methyl guanosine nucleotide levels in cellular extracts [1]: 8.80 pmol/million cells
metabolites observed in cellular extracts (% of total radioactivity) [1]: 48.5%
2′-C-methyl guanosine nucleotide levels in cellular extracts [2]: 44.2 pmol/million cells
metabolites observed in cellular extracts (% of total radioactivity) [2]: 75.0%
2′-C-methyl guanosine nucleotide levels in cellular extracts [3]: 60.4 pmol/million cells
metabolites observed in cellular extracts (% of total radioactivity) [3]: 67.0%
Compound 7 AUC0-24h (human hepatocytes (n=1), 1 μM [^14C]-2′-C-methyl guanosine): 302 pmol*h/million cells
Compound 7 AUC0-24h (human hepatocytes (n=1), 1 μM [^14C]-Compound 1): 1,027 pmol*h/million cells
Compound 7 AUC0-24h (human hepatocytes (n=2), 10 μM [^14C]-Compound 1, mean): 7,398 pmol*h/million cells
2′-C-methyl guanosine nucleotide levels in cellular extracts (human hepatocytes Hu759, 10 μM [^14C]-2′-C-methyl guanosine, 0 h): 0 pmol/million cells
AUC (area under the concentration-time curve) of Compound 7 levels (human hepatocytes Hu759, 10 μM [^14C]-2′-C-methyl guanosine): 2871 pmol * hr/million cells
2′-C-methyl guanosine nucleotide levels in cellular extracts (human hepatocytes Hu759, 10 μM [^14C]-2′-C-methyl guanosine, 1 h): 9.70 pmol/million cells
2′-C-methyl guanosine nucleotide levels in cellular extracts (human hepatocytes Hu759, 10 μM [^14C]-2′-C-methyl guanosine, 4 h): 51.0 pmol/million cells
2′-C-methyl guanosine nucleotide levels in cellular extracts (human hepatocytes Hu759, 10 μM [^14C]-2′-C-methyl guanosine, 8 h): 96.0 pmol/million cells
2′-C-methyl guanosine nucleotide levels in cellular extracts (human hepatocytes Hu759, 10 μM [^14C]-2′-C-methyl guanosine, 24 h): 214 pmol/million cells
2′-C-methyl guanosine nucleotide levels in cellular extracts (human hepatocytes Hu759, 10 μM [^14C]-Compound 1, 0 h): 0 pmol/million cells
AUC (area under the concentration-time curve) of Compound 7 levels (human hepatocytes Hu759, 10 μM [^14C]-Compound 1): 5759 pmol * hr/million cells
2′-C-methyl guanosine nucleotide levels in cellular extracts (human hepatocytes Hu759, 10 μM [^14C]-Compound 1, 1 h): 24.0 pmol/million cells
2′-C-methyl guanosine nucleotide levels in cellular extracts (human hepatocytes Hu759, 10 μM [^14C]-Compound 1, 4 h): 166 pmol/million cells
2′-C-methyl guanosine nucleotide levels in cellular extracts (human hepatocytes Hu759, 10 μM [^14C]-Compound 1, 8 h): 225 pmol/million cells
2′-C-methyl guanosine nucleotide levels in cellular extracts (human hepatocytes Hu759, 10 μM [^14C]-Compound 1, 24 h): 360 pmol/million cells
AUC (area under the concentration-time curve) of Compound 7 levels (human hepatocytes Hu775, 1 μM [^14C]-2′-C-methyl guanosine): 302 pmol * hr/million cells
2′-C-methyl guanosine nucleotide levels in cellular extracts [4]: 1.90 pmol/million cells
Major metabolites observed in cellular extracts (% of total radioactivity) [4]: 5.36 % of total radioactivity
2′-C-methyl guanosine nucleotide levels in cellular extracts [5]: 11.0 pmol/million cells
Major metabolites observed in cellular extracts (% of total radioactivity) [5]: 27.3 % of total radioactivity
2′-C-methyl guanosine nucleotide levels in cellular extracts [6]: 21.0 pmol/million cells
Major metabolites observed in cellular extracts (% of total radioactivity) [6]: 46.3 % of total radioactivity
AUC (area under the concentration-time curve) of Compound 7 levels (human hepatocytes Hu775, 1 μM [^14C]-Compound 1): 1027 pmol * hr/million cells
2′-C-methyl guanosine nucleotide levels in cellular extracts (human hepatocytes Hu775, 10 μM [^14C]-2′-C-methyl guanosine, 0 h): 0 pmol/million cells
AUC (area under the concentration-time curve) of Compound 7 levels (human hepatocytes Hu775, 10 μM [^14C]-2′-C-methyl guanosine): 3548 pmol * hr/million cells
2′-C-methyl guanosine nucleotide levels in cellular extracts (human hepatocytes Hu775, 10 μM [^14C]-2′-C-methyl guanosine, 1 h): 18.5 pmol/million cells
2′-C-methyl guanosine nucleotide levels in cellular extracts (human hepatocytes Hu775, 10 μM [^14C]-2′-C-methyl guanosine, 8 h): 149 pmol/million cells
2′-C-methyl guanosine nucleotide levels in cellular extracts (human hepatocytes Hu775, 10 μM [^14C]-2′-C-methyl guanosine, 24 h): 215 pmol/million cells
2′-C-methyl guanosine nucleotide levels in cellular extracts (human hepatocytes Hu775, 10 μM [^14C]-Compound 1, 0 h): 0 pmol/million cells
AUC (area under the concentration-time curve) of Compound 7 levels (human hepatocytes Hu775, 10 μM [^14C]-Compound 1): 9036 pmol * hr/million cells
2′-C-methyl guanosine nucleotide levels in cellular extracts (human hepatocytes Hu775, 10 μM [^14C]-Compound 1, 4 h): 216 pmol/million cells
2′-C-methyl guanosine nucleotide levels in cellular extracts (human hepatocytes Hu775, 10 μM [^14C]-Compound 1, 8 h): 366 pmol/million cells
2′-C-methyl guanosine nucleotide levels in cellular extracts (human hepatocytes Hu775, 10 μM [^14C]-Compound 1, 24 h): 564 pmol/million cells
Compound 7 maximal levels (human hepatocytes, 1 μM [^14C]-Compound 1): 60.4 pmol/million cells
Maximum Compound 7 levels (human hepatocytes, 10 μM [^14C]-2′-C-methyl guanosine, at 24 hours): 215 pmol/million cells
Maximum Compound 7 levels (human hepatocytes, 10 μM [^14C]-Compound 1, at 24 hours, mean of two donors): 296 pmol/million cells
Structure (SMILES): C[C@@]1(O)[C@H](O)[C@@H](COP(=O)(O)OP(=O)(O)OP(=O)(O)O)O[C@H]1n1cnc2c(=O)[nH]c(N)nc21 [Compound 7, [(2R)-2-methyl-β-D-ribofuranosyl]guanine 5′-triphosphate]
2′-C-methyl guanosine nucleotide levels in cellular extracts (human hepatocytes Hu775, 10 μM [^14C]-2′-C-methyl guanosine, 4 h): 86 pmol/million cells and 86.0 pmol/million cells
2′-C-methyl guanosine nucleotide levels in cellular extracts (human hepatocytes Hu775, 10 μM [^14C]-Compound 1, 1 h): 54 pmol/million cells and 54.0 pmol/million cells

From patent publication US20100003217A1, “Compounds and Pharmaceutical Compositions for the Treatment of Viral Infections” (priority 2008, published 2010)
